Test [1] addresses soluble human BACE1 catalytic domain (Homo sapiens (Human), UniProt P56817). Kind of test: BACE1 HTRF FRET Assay. In kind it is biochemical. To be noted: Ki calculated from IC50 using the Cheng-Prusoff equation; QSY7-APPswe-Eu substrate, pH 5.0. The source says: Na^+-Acetate pH 5.0; 1% Brij-35; Glycerol; Dimethyl Sulfoxide (DMSO); Recombinant human soluble BACE1 catalytic domain (>95% pure); APP Swedish mutant peptide substrate (QSY7-APP^swe-Eu): QSY7-EISEVNLDAEFC-Europium-amide.
A homogeneous time-resolved FRET assay can be used to determine IC50 values for inhibitors of the soluble human BACE1 catalytic domain. This assay monitors the increase of 620 nm fluorescence that resulted from BACE1 cleavage of an APPswedish APP^swe mutant peptide FRET substrate (QSY7-EISEVNLDAEFC-Europium-amide). This substrate contains an N-terminal QSY7 moiety that serves as a quencher of the C-terminal Europium fluorophore (620 nm Em). In the absence of enzyme activity, 620 nm fluorescence is low in the assay and increased linearly over 3 hours in the presence of uninhibited BACE1 enzyme Inhibition of BACE1 cleavage of the QSY7-APP^swe-Eu substrate by inhibitors is manifested as a suppression of 620 nm fluorescence.
Varying concentrations of inhibitors at 3× the final desired concentration in a volume of 10 ul are preincubated with purified human BACE1 catalytic domain (3 nM in 10 μl) for 30 minutes at 30° C. in reaction buffer containing 20 mM Na-Acetate pH 5.0, 10% glycerol, 0.1% Brij-35 and 7.5% DSMO. […]

Test [2] concerns the target purified human autoBACE-2 (Homo sapiens (Human), UniProt Q9Y5Z0). Kind of test: BACE-2 Assay (BACE-HTRF assay). In kind it is biochemical. Conditions: Ki calculated from IC50 using the Cheng-Prusoff equation; QSY7-EISEVNLDAEFC-Eu-amide substrate, pH 5.0; read-out: BACE2 Ki. The protocol:
Inhibitor IC50s at purified human autoBACE-2 are determined in a time-resolved endpoint proteolysis assay that measures hydrolysis of the QSY7-EISEVNLDAEFC-Eu-amide FRET peptide substrate (BACE-HTRF assay). BACE-mediated hydrolysis of this peptide results in an increase in relative fluorescence (RFU) at 620 nm after excitation with 320 nm light Inhibitor compounds, prepared at 3× the desired final concentration in 1×BACE assay buffer (20 mM sodium acetate pH 5.0, 10% glycerol, 0.1% Brij-35) supplemented with 7.5% DMSO are pre-incubated with an equal volume of autoBACE-2 enzyme diluted in 1×BACE assay buffer (final enzyme concentration 1 nM) in black 384-well NUNC plates for 30 minutes at 30° C. […] Following laser excitation of sample wells at 320 nm, the fluorescence signal at 620 nm is collected for 400 ms following a 50 μs delay on a RUBYstar HTRF plate reader (BMG Labtechnologies). […] IC50, are determined by nonlinear regression analysis (sigmoidal dose response, variable slope) of percent inhibition data with minimum and maximum values set to 0 and 100 percent respectively. […] The Ki values are calculated from the IC50 using the Cheng-Prusoff equation.

SMILES strings stand for the structures.

Sequence of soluble human BACE1 catalytic domain (P56817 75-416): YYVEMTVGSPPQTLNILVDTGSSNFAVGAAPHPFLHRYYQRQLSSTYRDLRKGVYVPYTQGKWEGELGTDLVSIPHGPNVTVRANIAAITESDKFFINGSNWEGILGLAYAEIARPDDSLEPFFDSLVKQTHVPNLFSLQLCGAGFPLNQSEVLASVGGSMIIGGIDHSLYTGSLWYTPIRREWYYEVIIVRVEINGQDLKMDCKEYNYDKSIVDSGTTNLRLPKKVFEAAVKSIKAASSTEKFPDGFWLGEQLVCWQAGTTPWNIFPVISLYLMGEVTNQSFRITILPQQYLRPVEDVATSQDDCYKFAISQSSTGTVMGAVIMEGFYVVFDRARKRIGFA
Sequence of purified human autoBACE-2 (Q9Y5Z0 63-473 limits assumed): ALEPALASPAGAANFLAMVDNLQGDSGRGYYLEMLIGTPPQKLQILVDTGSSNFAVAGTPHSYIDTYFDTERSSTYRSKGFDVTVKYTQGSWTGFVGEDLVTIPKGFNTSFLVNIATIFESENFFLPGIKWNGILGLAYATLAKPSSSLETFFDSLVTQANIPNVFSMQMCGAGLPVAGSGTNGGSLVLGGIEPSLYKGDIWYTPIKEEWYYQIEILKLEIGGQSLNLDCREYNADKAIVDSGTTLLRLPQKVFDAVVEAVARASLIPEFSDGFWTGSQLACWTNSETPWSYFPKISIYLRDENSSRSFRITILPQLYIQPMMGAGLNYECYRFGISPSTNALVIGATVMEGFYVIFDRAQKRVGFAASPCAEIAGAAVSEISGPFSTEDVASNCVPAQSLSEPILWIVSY

For orientation: Ki means a dissociation constant, usually derived from enzyme kinetics or from competition with a known ligand. For `CCN1C(=N)N[C@](C)(c2cc(NC(=O)c3ccc(Cl)cn3)ccc2F)CS1(=O)=NC` (stereo partly shown) [Example 6], the figures for the inhibition constant Ki in test [1] and in test [2] were 10 nM and 3 nM, respectively.
`CCN=S1(=O)C[C@@](C)(c2cc(NC(=O)c3ccc(Cl)cn3)ccc2F)NC(=N)N1C` (stereo partly shown) [Example 5]: the Ki in test [1] was 8 nM; in test [2], 3 nM.
